Test results as given in paper PMC6277767, “Broad and Region-Specific Impacts of the Synthetic Cannabinoid CP 55,940 in Adolescent and Adult Female Mouse Brains” (Frontiers in Molecular Neuroscience, 2018).

Test: CP 55,940 levels in eight brain regions 2 h after single i.p. 3 mg/kg injection (HPLC/MS/MS)
Assay type: in vivo, mouse
Conditions: for CP 55,940 Direction (relative to Veh) / CP 55,940 Magnitude (x Veh level): p .000
Description: The Bloomington Institutional Animal Care and Use Committee of Indiana University reviewed and approved the animal procedures. Female mice from the CD1 strain were utilized to match our study examining THC’s effects on the brain lipidome ([Leishman et al., 2018]). Mice were given a single i.p. injection of either 3 mg/kg CP or 1:1:18 cremophor:ethanol:saline vehicle (please refer to the section “3 mg/kg CP Is Relevant for Synthetic Cannabinoid Abuse and Has Stronger Effects on the Female Mouse Brain Lipidome During Adolescence” for a justification of dose and use of female mice). Three different age groups were given injections: PND 35 and PND 50 adolescents, and adult mice (PND 113). At least eight mice in each age group received CP and at least eight received vehicle. Matching the THC study time course ([Leishman et al., 2018]), mice were sacrificed via rapid decapitation 2 h after injection. Brains were immediately removed and flash-frozen in liquid nitrogen, and then stored at -80°C until dissections were performed. Brains were dissected on an ice-cold dissection plate into the following regions: STR, HIPP, CER, THAL, CTX, HYP, MID, and STEM. These abbreviations for these brain areas will be used exclusively when discussing the results generated by these specific dissections. Each dissected area was immediately placed in liquid nitrogen and then stored at -80°C until used for lipid extraction.
Tissue extracts were performed as previously described ([Bradshaw et al., 2006]; [Stuart et al., 2013]; [Raboune et al., 2014]; [Leishman et al., 2016a],[b], [2017], [2018]). First, samples were shock frozen in liquid nitrogen, weighed, and transferred to a centrifuge tube. The mass of the largest sample was multiplied by 50 to determine how many milliliters of HPLC-grade methanol (Fisher, Fair Lawn, NJ, United States) to add. Then, samples were spiked with 500 pmol deuterium-labeled NAGly (d8NAGly; Cayman Chemical, Ann Arbor, MI, United States). Samples were placed on ice in darkness for 2 h then individually homogenized and centrifuged at 19,000 × g for 20 min at 20°C. Supernatants were diluted with HPLC water (purified in house) to make a solution of 75% water, 25% supernatant. Lipids were partially purified on C18 solid phase extraction columns (Agilent, Palo Alto, CA, United States). A series of four elutions with 1.5 mL of 60%, 75%, 85%, and 100% methanol were collected ([Stuart et al., 2013]; [Leishman et al., 2016a],[b], [2018]).
As previously described ([Bradshaw et al., 2006]; [Tan et al., 2006]; [Smoum et al., 2010]; [Stuart et al., 2013]; [Tortoriello et al., 2013]; [Raboune et al., 2014]; [Leishman et al., 2016a],[b], [2017], [2018]), samples were analyzed using an Applied Biosystems API 3000 triple quadrupole mass spectrometer with electrospray ionization (Foster City, CA, United States). Using an Agilent XDB-C18 reversed phase analytical column and optimized mobile phase gradients, 20 μL from each elution were chromatographed. Two Shimadzu 10ADvp pumps (Columbia, MD, United States) provided the pressure for gradient elution. Mobile phase A: 20% methanol, 80% water (v/v) and 1 mM ammonium acetate (Sigma, St. Louis, MO, United States). Mobile phase B: 100% methanol, 1 mM ammonium acetate. Every method run began with 0% mobile phase B, reached 100% mobile phase B flowing at 0.2 mL/min, and gradually returned to 0% mobile phase B.
This screening library will be referred to as the lipidome when discussing data from this study. HPLC/MS/MS data were analyzed using Analyst software (Applied Biosystems) ([Bradshaw et al., 2006]; [Tan et al., 2006]; [Stuart et al., 2013]; [Tortoriello et al., 2013]; [Raboune et al., 2014]; [Leishman et al., 2016a],[b], [2017], [2018]). Chromatograms (Supplementary Figure 3) were generated by determining the retention time of analytes from the analytical column with a [M-1] or [M+1] parent peak and a fragmentation peak corresponding to the programmed values. […]

[1] = adult brainstem, 3mg/kg CP 55,940
[2] = adult cortex, 3 mg/kg CP 55,940
[3] = adult hypothalamus, 3mg/kg CP 55,940
[4] = adult midbrain, 3mg/kg CP 55,940
[5] = brainstem, PND35, 3 mg/kg CP 55,940 vs Veh

SMILES: CCCCCCC(C)(C)c1ccc([C@@H]2C[C@H](O)CC[C@H]2CCCO)c(O)c1 [CP 55,940]
- brain area with highest levels of CP (PND 35): CTX
- CP 55,940 level, Mean (PND 35, CER, 2 hours after acute 3 mg/kg injection): 7.2155E-011
- CP 55,940 level, Mean (PND 35, CTX, 2 hours after acute 3 mg/kg injection): 1.1107E-010
- CP 55,940 level, Mean (PND 35, HIPP, 2 hours after acute 3 mg/kg injection): 9.6303E-011
- CP 55,940 level, Mean (PND 35, HYP, 2 hours after acute 3 mg/kg injection): 5.3113E-011
- CP 55,940 level, Mean (PND 35, MID, 2 hours after acute 3 mg/kg injection): 7.9142E-011
- CP 55,940 level, Mean (PND 35, STEM, 2 hours after acute 3 mg/kg injection): 7.0414E-011
- CP 55,940 level, Mean (PND 35, STR, 2 hours after acute 3 mg/kg injection): 5.7413E-011
- CP 55,940 level, Mean (PND 35, THAL, 2 hours after acute 3 mg/kg injection): 8.8715E-011
- CP 55,940 level, Mean (PND 35, Total (all brain areas), 2 hours after acute 3 mg/kg injection): 7.8540E-011
- CP 55,940 level, Direction (relative to Veh) (PND 35 hypothalamus): ↑
- CP 55,940 level, Magnitude (x Veh level) (PND 35 hypothalamus): infinite
- CP 55,940 level: Magnitude (x Veh level) (PND 35 midbrain, 3mg/kg): infinite
- CP 55,940 level: Direction (rel to Veh) (PND 35 midbrain, 3mg/kg, one-way ANOVA): ↑
- CP 55,940 mean level (PND 35 striatum, 3 mg/kg i.p., 2 h): 5.74E-11 moles per gram
- brain area with highest levels of CP (PND 50): HIPP
- CP 55,940 level, Mean (PND 50, CER, 2 hours after acute 3 mg/kg injection): 7.5674E-011
- CP 55,940 level, Mean (PND 50, CTX, 2 hours after acute 3 mg/kg injection): 8.6116E-011
- CP 55,940 level, Mean (PND 50, HIPP, 2 hours after acute 3 mg/kg injection): 1.2297E-010
- CP 55,940 level, Mean (PND 50, HYP, 2 hours after acute 3 mg/kg injection): 4.3769E-011
- CP 55,940 level, Mean (PND 50, MID, 2 hours after acute 3 mg/kg injection): 1.2091E-010
- CP 55,940 level, Mean (PND 50, STEM, 2 hours after acute 3 mg/kg injection): 8.3747E-011
- CP 55,940 level, Mean (PND 50, STR, 2 hours after acute 3 mg/kg injection): 5.8704E-011
- CP 55,940 level, Mean (PND 50, THAL, 2 hours after acute 3 mg/kg injection): 9.9312E-011
- CP 55,940 level, Mean (PND 50, Total (all brain areas), 2 hours after acute 3 mg/kg injection): 8.6438E-011
- brain area with highest levels of CP (adult): CER
- CP 55,940 level, Direction (relative to Veh) [1]: ↑
- CP 55,940 level, Magnitude (x Veh level) [1]: infinite
- CP 55,940 level, Mean (adult cortex, 3mg/kg CP 55,940): 1.85E-10
- CP 55,940 Direction (relative to Veh) [2]: ↑
- CP 55,940 Magnitude (x Veh level) [2]: infinite
- CP 55,940 level, Mean (adult female mice, brainstem, 3mg/kg CP 55,940): 1.52E-10
- CP 55,940 level, Mean (adult hypothalamus, 3 mg/kg CP 55,940): 1.17E-10
- CP 55,940 Direction (relative to Veh) [3]: ↑
- CP 55,940 Magnitude (x Veh level) [3]: infinite
- CP 55,940 level, Mean [4]: 2.2E-10
- CP 55,940 Direction (relative to Veh) [4]: ↑
- CP 55,940 Magnitude (x Veh level) [4]: infinite
- CP 55,940 level, Mean (adult, CER, 2 hours after acute 3 mg/kg injection): 2.8002E-010
- CP 55,940 level, Mean (adult, CTX, 2 hours after acute 3 mg/kg injection): 1.8513E-010
- CP 55,940 level, Mean (adult, HIPP, 2 hours after acute 3 mg/kg injection): 2.6840E-010
- CP 55,940 level, Mean (adult, HYP, 2 hours after acute 3 mg/kg injection): 1.1726E-010
- CP 55,940 level, Mean (adult, MID, 2 hours after acute 3 mg/kg injection): 2.2043E-010
- CP 55,940 level, Mean (adult, STEM, 2 hours after acute 3 mg/kg injection): 1.5203E-010
- CP 55,940 level, Mean (adult, STR, 2 hours after acute 3 mg/kg injection): 2.0821E-010
- CP 55,940 level, Mean (adult, THAL, 2 hours after acute 3 mg/kg injection): 2.0002E-010
- CP 55,940 level, Mean (adult, Total (all brain areas), 2 hours after acute 3 mg/kg injection): 2.0394E-010
- brain area with lowest levels of CP (all three age groups): HYP
- variation of CP levels among the eight brain regions (all three age groups): twofold to threefold
- CP 55,940 level, Direction (relative to Veh) [5]: ↑
- CP 55,940 level, Magnitude (x Veh level) [5]: infinite
- CP 55,940 level (brainstem, PND35 female mice, 3mg/kg CP 55,940, mean): 7.04E-11
